Assay results from PubChem BioAssay (NCI).
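Where inhibition never reached the appropriate level, the endpoint shown equals the highest concentration tested. Otherwise, values were interpolated linearly from a five-concentration, 48-hour dose response in 96-well plates. GI50: concentration for 50% inhibition of growth. TGI marks complete inhibition of growth.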

What was measured:
Test in all cases: growth of human tumour cells (NCI), 48 h
[1] = test system: OVCAR-4 ovarian
[2] = test system: U251 CNS
[3] = test system: ACHN renal
[4] = test system: HCC-2998 colon
[5] = test system: RPMI-8226 leukemia
[6] = test system: UACC-257 melanoma
[7] = test system: SW-620 colon
[8] = test system: HCT-15 colon
[9] = test system: HOP-92 NSCLC
[10] = test system: HT29 colon
[11] = test system: SNB-75 CNS
[12] = test system: SK-OV-3 ovarian
[13] = test system: NCI-H23 lung
[14] = test system: NCI-H522 lung
[15] = test system: NCI-H460 lung
[16] = test system: MOLT-4 leukemia
[17] = test system: SK-MEL-28 melanoma
[18] = test system: TK-10 renal
[19] = test system: MDA-MB-435
[20] = test system: MDA-MB-231 breast
[21] = test system: SR leukemia
[22] = test system: SK-MEL-5 melanoma
[23] = test system: UO-31 renal
[24] = test system: MALME-3M melanoma
[25] = test system: K-562 leukemia
[26] = test system: NCI-H226 lung
[27] = test system: MCF7 breast
[28] = test system: PC-3 prostate
[29] = test system: OVCAR-3 ovarian
[30] = test system: COLO 205 colon
[31] = test system: KM12 colon
[32] = test system: NCI/ADR-RES ovarian
[33] = test system: A549 NSCLC
[34] = test system: DU-145 prostate
[35] = test system: SK-MEL-2 melanoma
[36] = test system: SF-295 CNS
[37] = test system: SF-268 CNS
[38] = test system: OVCAR-8 ovarian
[39] = test system: LOX IMVI melanoma
[40] = test system: HS 578T breast
[41] = test system: BT-549 breast
[42] = test system: M14 melanoma
[43] = test system: SF-539 CNS
[44] = test system: CAKI-1 renal
[45] = test system: SN12C renal
[46] = test system: A498 renal
[47] = test system: T-47D breast
[48] = test system: HCT-116 colon
[49] = test system: HOP-62 NSCLC
[50] = test system: OVCAR-5 ovarian
[51] = test system: IGROV1 ovarian
[52] = test system: EKVX NSCLC
[53] = test system: RXF 393 renal
[54] = test system: CCRF-CEM leukemia
[55] = test system: HL-60(TB) leukemia
[56] = test system: UACC-62 melanoma
[57] = test system: SNB-19 CNS
[58] = test system: 786-0 renal

SMILES: C=C(CN1C(=O)[C@H]2CCCN2C(=O)c2ccccc21)c1ccc(C(=O)O)cc1
- GI50 [1]: > 100 µM
- TGI [1]: > 100 µM
- GI50 [2]: > 100 µM
- TGI [2]: > 100 µM
- GI50 [3]: > 100 µM
- TGI [3]: > 100 µM
- GI50 [4]: > 100 µM
- TGI [4]: > 100 µM
- GI50 [5]: > 100 µM
- TGI [5]: > 100 µM
- GI50 [6]: > 100 µM
- TGI [6]: > 100 µM
- GI50 [7]: > 100 µM
- TGI [7]: > 100 µM
- GI50 [8]: > 100 µM
- TGI [8]: > 100 µM
- GI50 [9]: > 100 µM
- TGI [9]: > 100 µM
- GI50 [10]: > 100 µM
- TGI [10]: > 100 µM
- GI50 [11]: > 100 µM
- TGI [11]: > 100 µM
- GI50 [12]: > 100 µM
- TGI [12]: > 100 µM
- GI50 [13]: > 100 µM
- TGI [13]: > 100 µM
- GI50 [14]: > 100 µM
- TGI [14]: > 100 µM
- GI50 [15]: > 100 µM
- TGI [15]: > 100 µM
- GI50 [16]: > 100 µM
- TGI [16]: > 100 µM
- GI50 [17]: > 100 µM
- TGI [17]: > 100 µM
- GI50 [18]: > 100 µM
- TGI [18]: > 100 µM
- GI50 [19]: > 100 µM
- TGI [19]: > 100 µM
- GI50 [20]: > 100 µM
- TGI [20]: > 100 µM
- GI50 [21]: > 100 µM
- TGI [21]: > 100 µM
- GI50 [22]: > 100 µM
- TGI [22]: > 100 µM
- GI50 [23]: > 100 µM
- TGI [23]: > 100 µM
- GI50 [24]: > 100 µM
- TGI [24]: > 100 µM
- GI50 [25]: > 100 µM
- TGI [25]: > 100 µM
- GI50 [26]: > 100 µM
- TGI [26]: > 100 µM
- GI50 [27]: > 100 µM
- TGI [27]: > 100 µM
- GI50 [28]: > 100 µM
- TGI [28]: > 100 µM
- GI50 [29]: > 100 µM
- TGI [29]: > 100 µM
- GI50 [30]: > 100 µM
- TGI [30]: > 100 µM
- GI50 [31]: > 100 µM
- TGI [31]: > 100 µM
- GI50 [32]: > 100 µM
- TGI [32]: > 100 µM
- GI50 [33]: > 100 µM
- TGI [33]: > 100 µM
- GI50 [34]: > 100 µM
- TGI [34]: > 100 µM
- GI50 [35]: > 100 µM
- TGI [35]: > 100 µM
- GI50 [36]: > 100 µM
- TGI [36]: > 100 µM
- GI50 [37]: > 100 µM
- TGI [37]: > 100 µM
- GI50 [38]: > 100 µM
- TGI [38]: > 100 µM
- GI50 [39]: > 100 µM
- TGI [39]: > 100 µM
- GI50 [40]: > 100 µM
- TGI [40]: > 100 µM
- GI50 [41]: > 100 µM
- TGI [41]: > 100 µM
- GI50 [42]: > 100 µM
- TGI [42]: > 100 µM
- GI50 [43]: > 100 µM
- TGI [43]: > 100 µM
- GI50 [44]: > 100 µM
- TGI [44]: > 100 µM
- GI50 [45]: > 100 µM
- TGI [45]: > 100 µM
- GI50 [46]: > 100 µM
- TGI [46]: > 100 µM
- GI50 [47]: > 100 µM
- TGI [47]: > 100 µM
- GI50 [48]: > 100 µM
- TGI [48]: > 100 µM
- GI50 [49]: > 100 µM
- TGI [49]: > 100 µM
- GI50 [50]: > 100 µM
- TGI [50]: > 100 µM
- GI50 [51]: > 100 µM
- TGI [51]: > 100 µM
- GI50 [52]: > 100 µM
- TGI [52]: > 100 µM
- GI50 [53]: > 100 µM
- TGI [53]: > 100 µM
- GI50 [54]: > 100 µM
- TGI [54]: > 100 µM
- GI50 [55]: > 100 µM
- TGI [55]: > 100 µM
- GI50 [56]: > 100 µM
- TGI [56]: > 100 µM
- GI50 [57]: > 100 µM
- TGI [57]: > 100 µM
- GI50 [58]: > 100 µM
- TGI [58]: > 100 µM
